Source: paper PMC4558462, “A new small molecule inhibitor of soluble guanylate cyclase” (Bioorganic & Medicinal Chemistry, 2015)
Where two headings read alike, the source gives them in different places.

Molecular target: T1, purified bovine lung sGC (Bos taurus, UniProt P16068+P19687)
T1 construct: screened at 100 μM against purified bovine lung sGC; purchased Enzo lifesciences ALX-202-039-C005; host or cells: bovine lung
T1 sequence (P19687 1-691): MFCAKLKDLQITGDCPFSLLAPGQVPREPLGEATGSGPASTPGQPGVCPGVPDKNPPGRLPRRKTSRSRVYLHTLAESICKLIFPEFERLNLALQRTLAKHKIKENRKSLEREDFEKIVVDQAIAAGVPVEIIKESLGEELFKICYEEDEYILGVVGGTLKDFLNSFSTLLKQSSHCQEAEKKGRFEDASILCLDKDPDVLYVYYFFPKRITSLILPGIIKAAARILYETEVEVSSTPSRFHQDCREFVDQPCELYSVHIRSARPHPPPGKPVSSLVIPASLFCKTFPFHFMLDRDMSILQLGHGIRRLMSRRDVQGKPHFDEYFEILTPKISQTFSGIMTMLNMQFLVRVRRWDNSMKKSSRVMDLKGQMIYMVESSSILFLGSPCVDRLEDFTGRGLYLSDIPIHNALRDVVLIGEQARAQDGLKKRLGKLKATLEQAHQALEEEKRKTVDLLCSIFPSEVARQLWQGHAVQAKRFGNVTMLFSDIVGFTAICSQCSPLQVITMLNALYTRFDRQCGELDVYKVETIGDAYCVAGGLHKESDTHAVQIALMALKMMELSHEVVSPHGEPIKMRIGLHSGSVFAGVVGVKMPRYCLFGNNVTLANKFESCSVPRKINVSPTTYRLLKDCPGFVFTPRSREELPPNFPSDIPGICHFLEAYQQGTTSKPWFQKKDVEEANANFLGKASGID
T1 sequence (P16068 1-619): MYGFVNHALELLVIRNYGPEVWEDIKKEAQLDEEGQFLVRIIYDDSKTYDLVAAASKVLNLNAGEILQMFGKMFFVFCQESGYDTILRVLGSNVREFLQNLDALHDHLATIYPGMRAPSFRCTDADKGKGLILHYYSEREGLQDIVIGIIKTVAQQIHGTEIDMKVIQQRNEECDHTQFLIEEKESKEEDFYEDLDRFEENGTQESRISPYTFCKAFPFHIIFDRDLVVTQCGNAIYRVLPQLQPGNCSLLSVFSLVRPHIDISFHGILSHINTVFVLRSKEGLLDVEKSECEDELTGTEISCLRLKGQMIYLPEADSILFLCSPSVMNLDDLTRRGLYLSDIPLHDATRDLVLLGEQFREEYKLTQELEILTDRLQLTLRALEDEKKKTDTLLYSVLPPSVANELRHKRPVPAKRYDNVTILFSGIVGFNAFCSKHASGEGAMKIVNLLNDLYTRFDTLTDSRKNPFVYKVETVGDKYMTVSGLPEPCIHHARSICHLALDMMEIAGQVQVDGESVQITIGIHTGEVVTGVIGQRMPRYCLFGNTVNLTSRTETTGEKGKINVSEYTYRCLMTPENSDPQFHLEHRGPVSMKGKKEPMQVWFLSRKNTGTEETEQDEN
Assay: Soluble guanylate cyclase activity assay (cGMP radioimmunoassay)
Type: biochemical
Experimental: Virtual screening was performed by similarity searches using MACCS fingerprints at 85% and 75% Tanimoto of commercial libraries and the selected compounds were screened at 100 μM against purified bovine lung sGC using diethylamine NONOate (30 nM) as the NO donor. Enzyme activity was determined by measuring cGMP production using a standard cGMP [^3H] radioimmunoassay.[21,22]
[…] Compounds were added at 100 μM prior to adding the NO donor DEA/NO (30 nM) or clamped NO concentrations. cGMP generation was allowed to proceed for two minutes, after which aliquots were withdrawn and inactivated by boiling in 50 mM Tris, 4 mM EDTA buffer. cGMP formation was measured by a standard radioimmunoassay.

`O=[N+]([O-])c1ccc2nc(Nc3ccc(O)cc3)c(Nc3ccc(O)cc3)nc2c1` [Compound 10, 4,4′-((6-Nitroquinoxaline-2,3-diyl)bis(azanediyl))diphenol] was tested, and the Hill slope (GC activator cinaciguat 20 nM) was 4, the IC50 (GC activator cinaciguat 20 nM, no NO, read-out: IC50 (μM) ± SE) was 25 ± 4 µM and the Hill slope (GC activator cinaciguat 1 μM) was 4. It also gave an IC50 (GC activator cinaciguat 1 μM, no NO, read-out: IC50 (μM) ± SE) of 37 ± 40 µM, an IC50 (NO 0.3 nM, GTP 50 μM, read-out: IC50, NO-stimulated cGMP production by isolated sGC) of 21 ± 3 µM and an IC50 (NO 0.3 nM, GTP 200 μM, read-out: IC50, NO-stimulated cGMP production by isolated sGC) of 33 ± 4 µM. It also gave an IC50 (NO 0.3 nM, GTP 1000 μM, read-out: IC50, NO-stimulated cGMP production by isolated sGC) of 33 ± 9 µM, an IC50 (NO 10 nM, GTP 50 μM, read-out: IC50, NO-stimulated cGMP production by isolated sGC) of 19 ± 2 µM and an IC50 (NO 10 nM, GTP 200 μM, read-out: IC50, NO-stimulated cGMP production by isolated sGC) of 19 ± 1 µM. The IC50 (NO 10 nM, GTP 1000 μM, read-out: IC50, NO-stimulated cGMP production by isolated sGC) was 34 ± 2 µM, the “inhibition of cGMP production after enzyme activation with cinaciguat (in words)” value (cinaciguat-activated, no NO) was “capable of inhibiting cGMP production” and the inhibition at 100 µM (read-out: % inhibition of sGC activity at 100 μM compound) was 99%. It also gave an inhibition at 100 µM (read-out: sGC activity% inhibition at 100 μM) of 56.2 ± 22.4%.
